Molecular target: Peroxisome proliferator-activated receptor alpha (Homo sapiens) (UniProt Q07869)
Experiment: Agonist activity at human PPARalpha expressed in human MCF7 cells coexpressing TIF2 by luciferase reporter gene assay

Sequence of Peroxisome proliferator-activated receptor alpha (Homo sapiens) (Q07869 whole entry, looked up): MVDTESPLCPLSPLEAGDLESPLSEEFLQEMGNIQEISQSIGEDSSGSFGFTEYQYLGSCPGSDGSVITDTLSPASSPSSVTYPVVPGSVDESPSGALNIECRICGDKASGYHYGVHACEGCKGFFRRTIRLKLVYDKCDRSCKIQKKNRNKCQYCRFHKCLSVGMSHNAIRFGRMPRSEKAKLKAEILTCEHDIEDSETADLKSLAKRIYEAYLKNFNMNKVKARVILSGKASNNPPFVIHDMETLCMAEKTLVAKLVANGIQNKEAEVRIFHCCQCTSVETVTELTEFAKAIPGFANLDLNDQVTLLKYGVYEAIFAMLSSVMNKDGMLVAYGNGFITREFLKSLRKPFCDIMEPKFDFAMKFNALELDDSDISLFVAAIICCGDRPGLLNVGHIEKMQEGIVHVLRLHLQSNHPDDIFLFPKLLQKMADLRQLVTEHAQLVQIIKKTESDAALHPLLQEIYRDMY

Work on `CCCCCCCC/C=C\CCCCCCCCNC(=O)c1nn(-c2ccc(Cl)cc2Cl)c(-c2ccc(Cl)cc2)c1C` yielded an EC50 of 467 nM.
`CCCCCCCC/C=C\CCCCCCCCNC(=O)c1cc(-c2ccc(Cl)cc2)n(-c2ccc(Cl)cc2Cl)n1` gave an EC50 of 223 nM.
`CCCCCCCC/C=C\CCCCCCCCNC(=O)c1cc(-c2ccc(Cl)cc2)n(-c2ccc(Cl)cc2)n1` gave an EC50 of 524 nM.
Work on `CCCCCCCCCCCCCCCCNC(=O)c1nn(-c2ccc(Cl)cc2Cl)c(-c2ccc(Cl)cc2)c1C` yielded an EC50 greater than 10000 nM.
With `CCCCCCCCCCCCCCCCNC(=O)c1cc(-c2ccc(Cl)cc2)n(-c2ccc(Cl)cc2Cl)n1` the EC50 was greater than 10000 nM.
`CCCCCCCC/C=C\CCCCCCCCNC(=O)c1cc(-c2ccc(Cl)cc2)n(-c2ccccc2)n1` showed an EC50 of 183 nM.
For `CCCCCCCCCCCCCCCCNC(=O)c1cc(-c2ccc(Cl)cc2)n(-c2ccccc2)n1`, the EC50 was greater than 10000 nM.
Molecule `CCCCCCCCCCCCCCCCNC(=O)c1cc(-c2ccc(Cl)cc2)n(-c2ccc(Cl)cc2)n1` has an EC50 greater than 10000 nM.

Source: BindingDB's records for doi:10.1016/j.bmc.2008.10.023 (Polymer Functionalization Group (Ictp, Csic), 2008)
